# Assay results taken from US11491165B2 (Kinoxis Therapeutics Pty Ltd, priority 2016, dated 2022).
# Legend:
# [1] = biological target: T1, oxytocin receptor (OXTR), hOTR (Homo sapiens, UniProt P30559); experiment: IP1 accumulation assay, OTR-expressing HEK-293 cells (agonist and antagonist assessment); type: cell-based
# T1 construct: expressed in transfected cells
# T1 sequence (P30559 1-389): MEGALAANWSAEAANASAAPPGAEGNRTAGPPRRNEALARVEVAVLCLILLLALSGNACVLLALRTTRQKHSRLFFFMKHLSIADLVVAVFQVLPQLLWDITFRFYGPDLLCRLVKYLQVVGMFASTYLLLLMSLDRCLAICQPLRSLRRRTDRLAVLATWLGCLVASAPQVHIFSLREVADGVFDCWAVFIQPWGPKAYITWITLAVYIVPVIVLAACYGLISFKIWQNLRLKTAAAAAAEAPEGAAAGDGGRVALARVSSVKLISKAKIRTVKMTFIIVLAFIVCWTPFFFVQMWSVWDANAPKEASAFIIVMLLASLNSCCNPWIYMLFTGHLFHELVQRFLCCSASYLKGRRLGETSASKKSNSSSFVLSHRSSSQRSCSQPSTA
# Method: Human embryonic kidney cells (HEK-293) transfected to stably express untagged hOTR and V1aR using the Flp-In™ T-REx™ system (Life Technologies, Carlsbad, Calif. USA) were established as reported in Jorgensen et al., 2016 (the entire disclosure of which is hereby incorporated by reference). Cells were subsequently maintained in 10% DMEM containing hygromycin (80 μg/ml), penicillin (100 U/ml), streptomycin (0.1 mg/ml) and blasticidine S hydrochloride (15 μg/ml).
# OTR or V1aR-expressing HEK-293 cells were seeded onto poly-L-lysine (100 μg/ml)-coated 384-well plates at a density of 8.75×10^3 cells per well. Cells were incubated in tetracycline (2 μg/mL) for 48 h to induce receptor expression. Intracellular IP1 levels induced by activation of the Gq protein coupled to the OTR and V1aR was indexed using the HTRF IP-One kit (CisBio International, Bedford, Mass., USA), according to manufacturer's protocol. For agonist assessment, cells were incubated with logarithmically-spaced concentrations of compounds (1 nM-100 μM) for 1 h prior to the addition of Ab-Cryptate and IP1-d2 for 1 h. The contents of each well were transferred to a white-walled proxy plate (Perkin Elmer) and fluorescence read using a Pherastar Microplate reader (BMG Labtech, Cary, N.C., USA). For antagonist assessment, cells were incubated an ˜EC70 concentration of OT (30 nM) or AVP (25 nM) mixed with compounds (1 nM-100 μM) or vehicle control for 1 h. IP1 levels in the presence of compounds and OT or AVP were expressed as a percentage of levels seen with OT or AVP in the presence of vehicle control. Concentration response curves for OT and AVP were determined after 5 min incubation in drug or vehicle, and the data fitted using GraphPad PRISM to a 4-parameter logistic equation of the form y=Min+(Max−Min)/(1+10^((logEC50−X)*n)) where X is drug concentration and n is the H-ill slope. Data represent the mean±s.d. of at least 3 independent experiments, each in duplicate.
Structure (SMILES),melting point,"Emax ([1]; HEK293, read-out: OXTR Emax (% OXT)) [%]","OV function ([1]; ratio of OXTR functional potency to V1aR functional potency, 'OT only' = function at OXTR only)"
"COC(=O)C12CCC(C(=O)N3Cc4cnn(C)c4Nc4ccccc43)(CC1)CC2 [BcO-MC, methyl 4-(1-methyl-1,4,5,10-tetrahydrobenzo[b]pyrazolo[3,4-e][1,4]diazepine-5-carbonyl)bicyclo[2.2.2]octane-1-carboxylate]",198 to 211 °C,–,–
"Cn1ncc2c1Nc1ccccc1N(C(=O)c1cc(OCc3ccccc3)cc(OCc3ccccc3)c1)C2 [Example 9, (3,5-Bis(benzyloxy)phenyl)(1-methyl-4,10-dihydrobenzo[b]pyrazolo[3,4-e][1,4]diazepin-5 (1H)-yl)methanone]",221 to 224 °C,–,–
Cn1ncc2c1Nc1ccccc1N(C(=O)C13C4C5C6C4C1C6C53)C2 (stereo not drawn) [QB],194 to 203 °C,–,–
"Cn1ncc2c1Nc1ccccc1N(C(=O)c1ccc(O)cc1)C2 [TAR-B049, (4-hydroxyphenyl)(1-methyl-4,10-dihydrobenzo[b]pyrazolo[3,4-e][1,4]diazepin-5 (1H)-yl)methanone]",> 300 °C,–,–
"CCCCCCOc1ccc(C(=O)N2Cc3cnn(C)c3Nc3ccccc32)cc1 [TAR-B085, (4-(hexyloxy)phenyl)(1-methyl-4,10-dihydrobenzo[b]pyrazolo[3,4-e][1,4]diazepin-5 (1H)-yl)methanone]",204 to 206 °C,–,–
"CC1CCC(C(=O)N2Cc3cnn(C)c3Nc3ccccc32)CC1 (stereo not drawn) [TAR-C41, (1-methyl-4,10-dihydrobenzo[b]pyrazolo[3,4-e][1,4]diazepin-5 (1H)-yl)(4-methylcyclohexyl)methanone]",234 to 239 °C,–,–
"Cn1ncc2c1Nc1ccccc1N(C(=O)c1ccc(C(=O)O)cc1)C2 [TAR-C077, 4-(1-methyl-1,4,5,10-tetrahydrobenzo[b]pyrazolo[3,4-e][1,4]diazepine-5-carbonyl)benzoic acid]",> 300 °C,–,–
"Cc1cc(C(=O)N2Cc3cnn(C)c3Nc3ccccc32)ccc1CNC(=O)N1CCN(Cc2cc(O)cc(O)c2)CC1 [WAY, reference compound]",–,45,0.69

# Continued, values first:
melting point,"Emax ([1]; HEK293, read-out: OXTR Emax (% OXT)) [%]","OV function ([1]; ratio of OXTR functional potency to V1aR functional potency, 'OT only' = function at OXTR only)",Structure (SMILES)
228 to 243 °C,–,–,"Cn1ncc2c1Nc1ccccc1N(C(=O)c1ccc3ccccc3c1)C2 [TRGA-81, (1-methyl-4,10-dihydrobenzo[b]pyrazolo[3,4-e][1,4]diazepin-5 (1H)-yl)(naphthalen-2-yl)methanone]"
231 to 233 °C,–,–,"Cn1ncc2c1Nc1ccccc1N(C(=O)c1cccc3ccccc13)C2 [TRGA-89, (1-methyl-4,10-dihydrobenzo[b]pyrazolo[3,4-e][1,4]diazepin-5 (1H)-yl)(naphthalen-1-YI)methanone]"
281 to 282 °C (dec.),–,–,"COc1ccccc1C(=O)N1Cc2cnn(C)c2Nc2ccccc21 [WJ0659, (2-Methoxyphenyl)(1-methyl-4,10-dihydrobenzo[b]pyrazolo[3,4-e][1,4]diazepin-5 (1H)-yl)methanone]"
249 to 251 °C,–,–,"Cn1ncc2c1Nc1ccccc1N(C(=O)c1ccc(Br)cc1)C2 [WJ0820, (4-Bromophenyl)(1-methyl-4,10-dihydrobenzo[b]pyrazolo[3,4-e][1,4]diazepin-5 (1H)-yl)methanone]"
218 to 220 °C,–,–,"Cn1ncc2c1Nc1ccccc1N(C(=O)c1cccc(Br)c1)C2 [WJ0821, (3-Bromophenyl)(1-methyl-4,10-dihydrobenzo[b]pyrazolo[3,4-e][1,4]diazepin-5 (1H)-yl)methanone]"
244 to 246 °C,–,–,"Cn1ncc2c1Nc1ccccc1N(C(=O)c1ccccc1Br)C2 [WJ0822, (2-Bromophenyl)(1-methyl-4,10-dihydrobenzo[b]pyrazolo[3,4-e][1,4]diazepin-5 (1H)-yl)methanone]"
